In patent EP0195316A1, “Quinolonecarboxylic acid derivatives” (KYORIN PHARMACEUTICAL CO., LTD., priority 1985, dated 1986):
Values after ≈ are worked out from the molar mass of the structure shown.

Key:
Experiment in all cases: MIC, in vitro antibacterial activity (standard strains)
Assay type in all cases: cell-based
[1] = test system: Escherichia coli NIHJ JC-2; conditions: NIHJJC2; Escherichia coli NIHJ JC-2, 10^6 cells/ml, Gram -; read-out: MIC
[2] = test system: Bacillus subtilis PCI 219; conditions: PCI219; Bacillus subtilis PCI 219, 10^6 cells/ml, Gram +
B. fragilis 25285 = conditions: Bacteroides fragilis; B. fragilis 25285, 10^6 cells/ml, Gram -
Shigella sonnei IID 969 = conditions: IID969; Shigella sonnei IID 969, 10^6 cells/ml, Gram -
Experimental: Minimal inhibitory concentrations (MICs) were determined in accordance with the method recommended by Japan Society of Chemotherapy.

P. morganii IID 602 = conditions: Morganella morganii, IID602; P. morganii IID 602, 10^6 cells/ml, Gram -
K. pneumoniae 1-220S = conditions: Klebsiella pneumoniae, 1220S; K. pneumoniae 1-220S, 10^6 cells/ml, Gram -; read-out: MIC
S. epidermidis IID 866 = conditions: Staphylococcus epidermidis, IID866; S. epidermidis IID 866, 10^6 cells/ml, Gram +
[3] = test system: Klebsiella pneumoniae KY(GN)6445; conditions: Klebsiella pneumoniae KY(GN)6445, 10^6 cells/ml, Gram -; read-out: MIC
[4] = test system: Salmonella enteritidis IID 604; conditions: Salmonella enterica; Salmonella enteritidis IID 604, 10^6 cells/ml, Gram -; read-out: MIC
S. pyogenes IID 692 = conditions: Streptococcus pyogenes, IID692; S. pyogenes IID 692, 10^6 cells/ml, Gram +
P. mirabilis IID 994 = conditions: Proteus mirabilis, IID994; P. mirabilis IID 994, 10^6 cells/ml, Gram -; read-out: MIC
E. faecalis IID 682 = conditions: Enterococcus faecalis, IID682; E. faecalis IID 682, 10^6 cells/ml, Gram +
[5] = test system: B. thetaiotaomicron (0661); conditions: Bacteroides thetaiotaomicron; B. thetaiotaomicron (0661), 10^6 cells/ml, Gram -; read-out: MIC
[6] = test system: Yersinia enterocolitica IID 981; conditions: IID981; Yersinia enterocolitica IID 981, 10^6 cells/ml, Gram -
S. pneumoniae IID 552 = conditions: Streptococcus pneumoniae, IID552; S. pneumoniae IID 552, 10^6 cells/ml, Gram +; read-out: MIC
[7] = test system: Alcaligenes faecalis 0104002; conditions: Alcaligenes faecalis 0104002, 10^6 cells/ml, Gram -; read-out: MIC
B. fragilis 8503 = conditions: Bacteroides fragilis; B. fragilis 8503, 10^6 cells/ml, Gram -
[8] = test system: Staphylococcus aureus 209 P; conditions: 10^6 cells/ml, Gram +
B. fragilis 0558 = conditions: Bacteroides fragilis; B. fragilis 0558, 10^6 cells/ml, Gram -
[9] = test system: Acinetobacter anitratus IID 876; conditions: Acinetobacter calcoaceticus, IID876; Acinetobacter anitratus IID 876, 10^6 cells/ml, Gram -
[10] = test system: Serratia marcescens IID 618; conditions: IID618; Serratia marcescens IID 618, 10^6 cells/ml, Gram -
P. aeruginosa IFO 12689 = conditions: Pseudomonas aeruginosa, IFO12689; P. aeruginosa IFO 12689, 10^6 cells/ml, Gram -
[11] = test system: Streptococcus pyogenes (S-8); conditions: Streptococcus pyogenes (S-8), 10^6 cells/ml, Gram +; read-out: MIC
[12] = test system: Citrobacter freundii IID 976; conditions: IID976; Citrobacter freundii IID 976, 10^6 cells/ml, Gram -; read-out: MIC
F. varium KYA 8501 = conditions: Fusobacterium varium, KYA8501; F. varium KYA 8501, 10^6 cells/ml, Gram -; read-out: MIC
[13] = test system: Bacteroides fragilis GM 7000; conditions: GM7000; Bacteroides fragilis GM 7000, 10^6 cells/ml, Gram -
[14] = test system: Proteus vulgaris IFO 3167; conditions: IFO3167; Proteus vulgaris IFO 3167, 10^6 cells/ml, Gram -; read-out: MIC
E. coli ATCC 10536 = conditions: Escherichia coli, ATCC10536; E. coli ATCC 10536, 10^6 cells/ml, Gram -; read-out: MIC
[15] = test system: S. aureus IID 670 (Terajima); conditions: Staphylococcus aureus, IID670, 10^6 cells/ml, Gram +
[16] = test system: Enterobacter cloacae IID 977; conditions: IID977; Enterobacter cloacae IID 977, 10^6 cells/ml, Gram -
[17] = test system: Clostridium difficile I-E; conditions: Clostridioides difficile, 10^6 cells/ml, Gram +

## CCNCC1CCN(c2c(F)cc3c(=O)c(C(=O)O)cn(CC)c3c2F)C1 (stereo not shown) [CI-934, 1-Ethyl-7-(3-ethylaminomethyl-1-pyrrolidinyl)-6,8-difluoro-1,4-dihydro-4-oxo-3-quinolinecarboxylic acid]
[1]
  MIC: 0.1 µg/mL (≈ 0.264 µM)
[2]
  MIC: 0.05 µg/mL
B. fragilis 25285
  MIC: 3.13 µg/mL (≈ 8.25 µM)
Shigella sonnei IID 969
  MIC: 0.1 µg/mL (≈ 0.264 µM)
P. morganii IID 602
  MIC: 0.39 µg/mL (≈ 1.03 µM)
K. pneumoniae 1-220S
  MIC: 0.39 µg/mL (≈ 1.03 µM)
S. epidermidis IID 866
  MIC: 0.1 µg/mL
[3]
  MIC: 0.2 µg/mL (≈ 0.527 µM)
[4]
  MIC: 0.39 µg/mL (≈ 1.03 µM)
S. pyogenes IID 692
  MIC: 0.39 µg/mL
P. mirabilis IID 994
  MIC: 0.2 µg/mL (≈ 0.527 µM)
E. faecalis IID 682
  MIC: 0.39 µg/mL
[5]
  MIC: 25 µg/mL (≈ 65.9 µM)
[6]
  MIC: 0.39 µg/mL (≈ 1.03 µM)
S. pneumoniae IID 552
  MIC: 0.39 µg/mL (≈ 1.03 µM)
[7]
  MIC: 6.25 µg/mL (≈ 16.5 µM)
B. fragilis 8503
  MIC: 6.25 µg/mL (≈ 16.5 µM)
[8]
  MIC: 0.1 µg/mL
B. fragilis 0558
  MIC: 3.13 µg/mL (≈ 8.25 µM)
[9]
  MIC: 0.39 µg/mL (≈ 1.03 µM)
[10]
  MIC: 0.39 µg/mL (≈ 1.03 µM)
P. aeruginosa IFO 12689
  MIC: 6.25 µg/mL (≈ 16.5 µM)
[11]
  MIC: 0.2 µg/mL (≈ 0.527 µM)
[12]
  MIC: 0.2 µg/mL (≈ 0.527 µM)
F. varium KYA 8501
  MIC: 6.25 µg/mL (≈ 16.5 µM)
[13]
  MIC: 6.25 µg/mL (≈ 16.5 µM)
[14]
  MIC: 0.05 µg/mL (≈ 0.132 µM)
E. coli ATCC 10536
  MIC: 0.1 µg/mL (≈ 0.264 µM)
[15]
  MIC: 0.1 µg/mL
[16]
  MIC: 0.78 µg/mL (≈ 2.06 µM)
[17]
  MIC: 3.13 µg/mL
